This note sets out measurements from paper PMC6122928 (The Journal of General Physiology, 2018).

The target of assay [1] is T1, xTMEM16A (Xenopus laevis, UniProt B5SVV6).
T1 sequence (B5SVV6 1-979): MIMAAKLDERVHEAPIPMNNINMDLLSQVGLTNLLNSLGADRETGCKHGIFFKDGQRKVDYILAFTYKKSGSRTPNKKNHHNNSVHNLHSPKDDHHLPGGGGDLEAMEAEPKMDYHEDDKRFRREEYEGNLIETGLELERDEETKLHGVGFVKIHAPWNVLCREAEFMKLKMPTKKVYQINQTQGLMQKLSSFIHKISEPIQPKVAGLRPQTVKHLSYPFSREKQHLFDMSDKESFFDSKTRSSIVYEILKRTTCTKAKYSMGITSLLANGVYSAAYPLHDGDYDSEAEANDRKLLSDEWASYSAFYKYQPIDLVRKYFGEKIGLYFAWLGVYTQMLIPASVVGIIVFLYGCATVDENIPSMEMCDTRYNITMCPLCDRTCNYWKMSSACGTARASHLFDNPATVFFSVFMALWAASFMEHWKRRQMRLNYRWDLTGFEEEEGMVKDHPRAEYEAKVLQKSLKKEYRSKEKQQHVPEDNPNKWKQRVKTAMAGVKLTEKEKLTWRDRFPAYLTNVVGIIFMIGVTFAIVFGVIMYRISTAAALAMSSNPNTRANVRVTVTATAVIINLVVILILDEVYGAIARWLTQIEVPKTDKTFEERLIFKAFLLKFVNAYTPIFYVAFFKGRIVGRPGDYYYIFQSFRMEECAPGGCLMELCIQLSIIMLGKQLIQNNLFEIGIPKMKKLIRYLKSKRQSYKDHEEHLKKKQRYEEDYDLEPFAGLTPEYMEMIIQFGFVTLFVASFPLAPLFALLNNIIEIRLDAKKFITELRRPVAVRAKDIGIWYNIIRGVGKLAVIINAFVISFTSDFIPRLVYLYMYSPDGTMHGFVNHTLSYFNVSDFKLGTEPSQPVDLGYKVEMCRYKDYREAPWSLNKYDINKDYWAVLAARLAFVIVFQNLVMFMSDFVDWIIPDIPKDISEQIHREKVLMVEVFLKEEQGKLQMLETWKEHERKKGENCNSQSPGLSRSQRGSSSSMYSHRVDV
Briefly: TEVC in axolotl oocytes, current evoked by uncaging IP3. It counts as cell-based.

In assay [2] the target is T1, xTMEM16A. The assay is described as above. It counts as cell-based. The following applies: 7.5 µM; otherwise same; printed as almost 50%.

As for `COc1ccccc1C=NNC(=O)COc1ccc(Cl)cc1C` [Ani9, 2-(4-chloro-2-methylphenoxy)-N-[(2-methoxyphenyl)methylideneamino]-acetamide], the inhibition at 1 µM on xTMEM16A [1] (read-out: % inhibition at 1 μM) is approximately 80%.

With `CC(C)(C)C1CCc2c(sc(NC(=O)c3ccco3)c2C(=O)O)C1` (stereo not shown) [CaCCinh-A01, 6-(1,1-dimethylethyl)-2-[(2-furanylcarbonyl)amino]-4,5,6,7-tetrahydrobenzo[b]thiophene-3-carboxylic acid], the “% inhibition” value at xTMEM16A [2] is “whereas T16Ainh-A01 and CaCCinh-A01 were much less effective”.

In the case of `O=S(=O)(O)c1cc(N=C=S)ccc1/C=C/c1ccc(N=C=S)cc1S(=O)(=O)O` [DIDS], the inhibition at 7.5 µM at xTMEM16A [1] (read-out: % inhibition at 7.5 μM) is approximately 50%.

Regarding `COc1cc(Nc2ccc([N+](=O)[O-])cc2C(=O)O)cc2ccccc12` [MONNA, N-((4-methoxy)-2-naphthyl)-5-nitroanthranilic acid], the inhibition at 10 µM on xTMEM16A [1] (read-out: % inhibition at 10 μM) was determined as 72 ± 3%.

As usually defined, the inhibition is the change of the read-out against control, counted positive when it falls.
